The data set is described as follows: HILIC, Waters Atlantis Premier BEH Z-HILIC, 100 × 2.1 mm, 1.7 µm, 40 °C, 0.15 mL/min, estimated dead time 1.5 min; A: water + 20 mM ammonium carbonate + 5 µM medronic acid; B: 10% water + 90% acetonitrile + 2 mM ammonium carbonate + 0.5 µM medronic acid; gradient (min/%B) 0/100 18/60 18.1/20 21.5/20 22/100 23.5/100 25.5/100. The following applies: stereoisomer not certain.
On to `O=C(O)CCC(=O)C(=O)O` [2-Oxoglutaric acid], for which the LC retention time was 8.86 min.
Turning to `O=C(O)CCC(O)C(=O)O` (configuration not stated) [2-hydroxy glutaric acid], the LC retention time is 8.86 min.
The value for `Nc1ncnc2c1ncn2C1OC(COP(=O)(O)OP(=O)(O)O)C(O)C1O` (configuration not stated) [ADP] was 11.6 min.
The value for `Nc1ncnc2c1ncn2C1OC(COP(=O)(O)O)C(O)C1O` (configuration not stated) [AMP] was 9.42 min.
With `Nc1ncnc2c1ncn2C1OC(COP(=O)(O)OP(=O)(O)OP(=O)(O)O)C(O)C1O` (configuration not stated) [ATP] the figure was 13.6 min; with `CC(=O)SCCNC(=O)CCNC(=O)C(O)C(C)(C)COP(=O)(O)OP(=O)(O)OCC1OC(n2cnc3c(N)ncnc32)C(O)C1OP(=O)(O)O` (configuration not stated) [Acetyl-CoA], 9.69 min; with `Nc1ncnc2c1ncn2C1OC(CO)C(O)C1O` (configuration not stated) [Adenosine], 3.63 min.
Take `O=C(O)CCCCC1SCC2NC(=O)NC21` (configuration not stated) [Biotin]: the LC retention time is 4.67 min.
The value for `C[N+](C)(C)CC(O)CC(=O)[O-]` (configuration not stated) [Carnitine] was 10.1 min; that for `O=C(O)CC(O)(CC(=O)O)C(=O)O` [Citric acid] was 14.3 min; that for `CC(C)(COP(=O)(O)OP(=O)(O)OCC1OC(n2cnc3c(N)ncnc32)C(O)C1OP(=O)(O)O)C(O)C(=O)NCCC(=O)NCCS` (configuration not stated) [CoenzymeA] was 11.4 min.
With `Cc1cc2nc3c(=O)[nH]c(=O)nc-3n(CC(O)C(O)C(O)COP(=O)(O)OP(=O)(O)OCC3OC(n4cnc5c(N)ncnc54)C(O)C3O)c2cc1C` (configuration not stated) [FAD] the figure was 7.67 min; with `O=C(CO)C(O)C(O)C(O)COP(=O)(O)O` (configuration not stated) [Fructose 6-phosphate], 11.3 min.
For the compound `O=P(O)(O)OCC1OC(O)C(O)C(O)C1O` (configuration not stated) [Glucose-6-phosphate], the LC retention time was 12.3 min.
The value for `NC(CCC(=O)O)C(=O)O` (configuration not stated) [Glutamic acid] was 9.81 min.
With `NC(=O)CCC(N)C(=O)O` (configuration not stated) [Glutamine] the figure was 9.87 min; with `O=P(O)(O)OCC(O)CO` (configuration not stated) [Glycerol-3-phosphate], 10.4 min; with `OCC1OC(O)C(O)C(O)C1O` (configuration not stated) [Hexose], 6.98 min.
The value for `O=C(O)CC(C(=O)O)C(O)C(=O)O` (configuration not stated) [Isocitric acid] was 14 min; that for `CCC(C)C(N)C(=O)O` (configuration not stated) [Isoleucine] was 6.4 min; that for `CC(O)C(=O)O` (configuration not stated) [Lactic Acid] was 3.35 min.
For `CC(C)CC(N)C(=O)O` (configuration not stated) [Leucine], the LC retention time was 6.46 min.
For `NC(=O)C1=CN(C2OC(COP(=O)(O)OP(=O)(O)OCC3OC(n4cnc5c(N)ncnc54)C(O)C3O)C(O)C2O)C=CC1` (configuration not stated) [NADH], the LC retention time was 8.31 min.
The value for `NC(=O)c1ccc[n+](C2OC(COP(=O)(O)OP(=O)(O)OCC3OC(n4cnc5c(N)ncnc54)C(OP(=O)(O)O)C3O)C(O)C2O)c1` (configuration not stated) [NADP] was 13.4 min; that for `NC(=O)c1ccc[n+](C2OC(COP(=O)(O)OP(=O)(O)OCC3OC(n4cnc5c(N)ncnc54)C(O)C3O)C(O)C2O)c1` (configuration not stated) [NAD] was 9.95 min.
The value for `C=C(OP(=O)(O)O)C(=O)O` [PEP] was 13.1 min; that for `O=C(O)C(CO)OP(=O)(O)O` (configuration not stated) [Phosphoglyceric acid A] was 12.8 min; that for `O=C(O)CCC(=O)O` [Succinic Acid] was 8.9 min.
The value for `O=C(CO)COP(=O)(O)O` [Triose phosphate] was 10.4 min.
`CC(=O)NC1C(OP(=O)(O)OP(=O)(O)OCC2OC(n3ccc(=O)[nH]c3=O)C(O)C2O)OC(CO)C(O)C1O` (configuration not stated) [UDP-GlcNAc]: the LC retention time is 9.95 min.
With `CCC(=O)OC(CC(=O)[O-])C[N+](C)(C)C` (configuration not stated) [carnitine-C3] the figure was 6.46 min; with `O=C1CC(C(=O)O)NC(=O)N1` (configuration not stated) [dihydroorotic acid], 4.08 min.

Source of the values: the RepoRT retention time repository.
